How the values were obtained:
[1] = system: Glomerella lagenarium (Colletotrichum lagenarium); assay: Fungicidal activity against Glomerella lagenarium (Colletotrichum lagenarium) liquid culture / cucumber / preventative (anthracnose); assay type: cell-based; details: Colletotrichum orbiculare; 20 ppm in the applied formulation; liquid culture (PDB), growth inhibition measured photometrically after 3 to 4 days; compared to untreated control; read-out: disease control
Summary of the method: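 Photometric read-out of fungal growth after 2–7 days, expressed as percent antifungal activity versus untreated check. Cryo-stored conidia in PDB; compound at 20 ppm; dark, 24 °C, 96% RH.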

[2] = system: Puccinia recondita f. Sp. Tritici; assay: Fungicidal activity against Puccinia recondita f. sp. tritici / wheat / leaf disc preventative (brown rust); assay type: in vivo; details: foliar, 200 ppm in the applied formulation, wheat leaf segments, preventative, compared to untreated control leaf disks, read-out: disease control
Summary of the method: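 Preventative leaf-segment test, wheat cv. Kanzler on water agar. Spray compound at 200 ppm, inoculate with spores 1 day later; 19° C., 75% rh, 12/12 h light. Read-out: % disease control vs untreated, 7 to 9 days after application.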

[3] = system: Phakopsora Pachyrhizi; assay: Fungicidal activity against Phakopsora pachyrhizi / soybean / leaf disc preventative (Asian soybean rust); assay type: in vivo; details: foliar, 200 ppm in the applied formulation, soybean leaf disks, compared to untreated control leaf disks, read-out: disease control
Experimental: Leaf disks or leaf segments of various plant species are cut from plants grown in a greenhouse. The cut leaf disks or segments are placed in multiwell plates (24-well format) onto water agar. The leaf disks are sprayed with a test solution before (preventative) or after (curative) inoculation. Compounds to be tested are prepared as DMSO solutions (max. 10 mg/ml) which are diluted to the appropriate concentration with 0.025% Tween20 just before spraying. The inoculated leaf disks or segments are incubated under defined conditions (temperature, relative humidity, light, etc.) according to the respective test system. A single evaluation of disease level is carried out 3 to 14 days after inoculation, depending on the pathosystem. Percent disease control relative to the untreated check leaf disks or segments is then calculated.
Fungicidal Activity Against Phakopsora Pachyrhizi Soybean/Leaf Disc Preventative (Asian Soybean Rust)
Soybean leaf disks are placed on water agar in multiwell plates (24-well format) and sprayed with the formulated test compound diluted in water. One day after application leaf discs are inoculated by spraying a spore suspension on the lower leaf surface. After an incubation period in a climate cabinet of 24-36 hours in darkness at 20° C. and 75% rh leaf disc are kept at 20° C. with 12 h light/day and 75% rh. The activity of a compound is assessed as percent disease control compared to untreated when an appropriate level of disease damage appears in untreated check leaf disks (12 to 14 days after application).
The following compounds at 200 ppm in the applied formulation give at least 80% disease control in this test when compared to untreated control leaf disks under the same conditions, which show extensive disease development.

## CON(Cc1ccc(-c2noc(C(F)(F)F)n2)cc1)C(=O)NC1CCCCC1 [Compound 3.11, 3-cyclohexyl-1-methoxy-1-[[4-[5-(trifluoromethyl)-1,2,4-oxadiazol-3-yl]phenyl]methyl]urea]
[1]
  inhibition of growth at 20 ppm: ≥ 80%
[2]
  pest or weed control at 200 ppm: ≥ 80%
[3]
  pest or weed control at 200 ppm: ≥ 80%

## CON(Cc1ccc(-c2noc(C(F)(F)F)n2)cc1)C(=O)C1(C)CCCCC1 [Compound 1.33, N-methoxy-1-methyl-N-[[4-[5-(trifluoromethyl)-1,2,4-oxadiazol-3-yl]phenyl]methyl]-cyclohexane-carboxamide]
[1]
  inhibition of growth at 20 ppm: ≥ 80%
[2]
  pest or weed control at 200 ppm: ≥ 80%
[3]
  pest or weed control at 200 ppm: ≥ 80%

## O=C(CC(F)(F)F)N(CCO)Cc1ccc(-c2noc(C(F)(F)F)n2)cc1 [Compound 1.733, 3,3,3-trifluoro-N-(2-hydroxyethyl)-N-[[4-[5-(trifluoromethyl)-1,2,4-oxadiazol-3-yl]phenyl]methyl]-propanamide]
[1]
  inhibition of growth at 20 ppm: ≥ 80%
[2]
  pest or weed control at 200 ppm: ≥ 80%
[3]
  pest or weed control at 200 ppm: ≥ 80%

## CON(Cc1ccc(-c2noc(C(F)(F)F)n2)c(F)c1F)C(=O)c1ccccc1Cl [Compound 1.576, 2-chloro-N-[[2,3-difluoro-4-[5-(trifluoromethyl)-1,2,4-oxadiazol-3-yl]phenyl]methyl]-N-methoxy-benzamide]
[1]
  inhibition of growth at 20 ppm: ≥ 80%
[2]
  pest or weed control at 200 ppm: ≥ 80%
[3]
  pest or weed control at 200 ppm: ≥ 80%

## C#CCN(Cc1ccc(-c2noc(C(F)(F)F)n2)cc1)C(=O)C1CCCCC1 [Compound 1.158, N-prop-2-ynyl-N-[[4-[5-(trifluoromethyl)-1,2,4-oxadiazol-3-yl]phenyl]methyl]-cyclohexane-carboxamide]
[1]
  inhibition of growth at 20 ppm: ≥ 80%
[2]
  pest or weed control at 200 ppm: ≥ 80%
[3]
  pest or weed control at 200 ppm: ≥ 80%

## O=C(OCCN(Cc1ccc(-c2noc(C(F)(F)F)n2)cc1)C(=O)C1CCC1)C1CCC1 [Compound 1.715, 2-[cyclobulanecarbonyl-[[4-[5-(trifluoromethyl)-1,2,4-oxadiazol-3-yl]phenyl]methyl]-amino]ethyl cyclobutane-carboxylate]
[1]
  inhibition of growth at 20 ppm: ≥ 80%
[2]
  pest or weed control at 200 ppm: ≥ 80%
[3]
  pest or weed control at 200 ppm: ≥ 80%

## CCON(Cc1ccc(-c2noc(C(F)(F)F)n2)cc1)C(=O)CC#N [Compound 1.627, 2-cyano-N-ethoxy-N-[[4-[5-(trifluoromethyl)-1,2,4-oxadiazol-3-yl)phenyl]methyl]-acetamide]
[1]
  inhibition of growth at 20 ppm: ≥ 80%
[2]
  pest or weed control at 200 ppm: ≥ 80%
[3]
  pest or weed control at 200 ppm: ≥ 80%

## O=C(CC(F)(F)F)N(Cc1ccc(-c2noc(C(F)(F)F)n2)cc1)CC(F)(F)F [Compound 1.704, 3,3,3-trifluoro-N-(2,2,2-trifluoroethyl)-N-[[4-[5-(trifluoromethyl)-1,2,4-oxadiazol-3-yl]phenyl]methyl]-propanamide]
[1]
  inhibition of growth at 20 ppm: ≥ 80%
[2]
  pest or weed control at 200 ppm: ≥ 80%
[3]
  pest or weed control at 200 ppm: ≥ 80%

## N#CCC(=O)N(CCO)Cc1ccc(-c2noc(C(F)(F)F)n2)cc1 [Compound 1.728, 2-cyano-N-(2-hydroxyethyl)-N-[[4-[5-(trifluoromethyl)-1,2,4-oxadiazol-3-yl]phenyl]methyl]-acetamide]
[2]
  pest or weed control at 200 ppm: ≥ 80%
[3]
  pest or weed control at 200 ppm: ≥ 80%

## CC(=O)N(CCO)Cc1ccc(-c2noc(C(F)(F)F)n2)cc1 [Compound 1.735, N-(2-hydroxyethyl)-N-[[4-[5-(trifluoromethyl)-1,2,4-oxadiazol-3-yl]phenyl]methyl]-acetamide]
[1]
  inhibition of growth at 20 ppm: ≥ 80%
[2]
  pest or weed control at 200 ppm: ≥ 80%
[3]
  pest or weed control at 200 ppm: ≥ 80%

## O=C(C1CCCCC1)N(Cc1ccc(-c2noc(C(F)(F)F)n2)cc1)C1CC1 [Compound 1.90, N-cyclopropyl-N-[[4-[5-(trifluoromethyl)-1,2,4-oxadiazol-3-yl]phenyl]methyl]-cyclohexane-carboxamide]
[1]
  inhibition of growth at 20 ppm: ≥ 80%
[2]
  pest or weed control at 200 ppm: ≥ 80%
[3]
  pest or weed control at 200 ppm: ≥ 80%

## O=C(C1CCCC1)N(Cc1ccc(-c2noc(C(F)(F)F)n2)cc1)CC1CC1 [Compound 1.212, N-(cyclopropylmethyl)-N-[[4-[5-(trifluoromethyl)-1,2,4-oxadiazol-3-yl]phenyl]methyl]-cyclopentane-carboxamide]
[1]
  inhibition of growth at 20 ppm: ≥ 80%
[2]
  pest or weed control at 200 ppm: ≥ 80%
[3]
  pest or weed control at 200 ppm: ≥ 80%

## CCON(Cc1ccc(-c2noc(C(F)(F)F)n2)cc1)C(=O)CC [Compound 1.562, N-ethoxy-N-[[4-[5-(trifiuoromethyl)-1,2,4-oxadiazol-3-yl]phenyl]methyl]-propanamide]
[1]
  inhibition of growth at 20 ppm: ≥ 80%
[2]
  pest or weed control at 200 ppm: ≥ 80%
[3]
  pest or weed control at 200 ppm: ≥ 80%

## O=C(c1ccccc1Cl)N(CCO)Cc1ccc(-c2noc(C(F)(F)F)n2)cc1 [Compound 1.709, 2-chloro-N-(2-hydroxyethyl)-N-[[4-[5-(trifluoromethyl)-1,2,4-oxadiazol-3-yl]phenyl]methyl]-benzamide]
[1]
  inhibition of growth at 20 ppm: ≥ 80%
[2]
  pest or weed control at 200 ppm: ≥ 80%
[3]
  pest or weed control at 200 ppm: ≥ 80%

## C#CCC(NS(=O)(=O)CC)C(=O)N(Cc1ccc(-c2noc(C(F)(F)F)n2)cc1)OC (stereo not shown) [Compound 1.60, 2-(ethylsulfonylamino)-N-methoxy-N-[[4-[5-(trifluoromethyl)-1,2,4-oxadiazol-3-yl]phenyl]methyl]-pent-4-ynamide]
[2]
  pest or weed control at 200 ppm: ≥ 80%
[3]
  pest or weed control at 200 ppm: ≥ 80%

## CCCCON(Cc1ccc(-c2noc(C(F)(F)F)n2)cc1)C(=O)C1(C#N)CC1 [Compound 1.646, N-butoxy-1-cyano-N-[[4-[5-(trifluoromethyl)-1,2,4-oxadiazol-3-yl]phenyl]methyl]-cyclopropane-carboxamide]
[1]
  inhibition of growth at 20 ppm: ≥ 80%
[3]
  pest or weed control at 200 ppm: ≥ 80%

## CCCCON(Cc1ccc(-c2noc(C(F)(F)F)n2)cc1)C(=O)C1(C)CC1 [Compound 1.639, N-butoxy-1-methyl-N-[[4-[5-(trifluoromethyl)-1,2,4-oxadiazol-3-yl]phenyl]methyl]-cyclopropane-carboxamide]
[1]
  inhibition of growth at 20 ppm: ≥ 80%
[3]
  pest or weed control at 200 ppm: ≥ 80%

## C#CCN(Cc1ccc(-c2noc(C(F)(F)F)n2)cc1)C(=O)C(C)(CC)CC [Compound 1.195, 2-ethyl-2-methyl-N-prop-2-ynyl-N-[[4-[5-(trifluoromethyl)-1,2,4-oxadiazol-3-yl]phenyl]methyl]-butanamide]
[1]
  inhibition of growth at 20 ppm: ≥ 80%
[3]
  pest or weed control at 200 ppm: ≥ 80%

## CCON(Cc1ccc(-c2noc(C(F)(F)F)n2)cc1)C(=O)CC1CC1 [Compound 1.632, 2-cyclopropyl-N-ethoxy-N-[[4-[5-(trifluoromethyl)-1,2,4-oxadiazol-3-yl]phenyl]methyl]-acetamide]
[1]
  inhibition of growth at 20 ppm: ≥ 80%
[3]
  pest or weed control at 200 ppm: ≥ 80%

## O=C(C1CC1)N(Cc1ccc(-c2noc(C(F)(F)F)n2)cc1)CC1CC1 [Compound 1.246, N-(cyclopropylmethyl)-N-[[4-[5-(trifluoromethyl)-1,2,4-oxadiazol-3-yl]phenyl]methyl]-cyclopropane-carboxamide]
[1]
  inhibition of growth at 20 ppm: ≥ 80%
[3]
  pest or weed control at 200 ppm: ≥ 80%

## O=C(C1CCC1)N(Cc1ccc(-c2noc(C(F)(F)F)n2)cc1)CC(F)(F)F [Compound 1.694, N-(2,2,2-trifluoroethyl)-N-[[4-[5-(trifluoromethyl)-1,2,4-oxadiazol-3-yl]phenyl]methyl]-cyclobutane-carboxamide]
[1]
  inhibition of growth at 20 ppm: ≥ 80%
[3]
  pest or weed control at 200 ppm: ≥ 80%

Source: US11180462B2, “Microbiocidal oxadiazole derivatives” (SYNGENTA PARTICIPATIONS AG, priority 2015, dated 2021)
